Test results taken from PMC3275140 (Journal of Natural Products, 2011).

test system: tubulin; experiment: Inhibition of tubulin polymerization; type: biochemical; conditions: read-out: Inhibition of tubulin polymerization IC50; pure protein assay

| Compound | IC50 [µM] |
| --- | --- |
| COc1cc(/C=C\c2ccc(OC)c(OP(=O)(O)O)c2O)cc(OC)c1OC [4a (Z), (Z)-1-[3′,4′,5′-Trimethoxyphenyl]-2-[2″-[hydroxy]-3″-[(disodium)phosphate]-4″-methoxyphenyl] ethene] | > 40 |
| COc1ccc(/C=C\c2cc(OC)c(OC)c(OC)c2)c(OP(=O)(O)O)c1O [8a (Z), (Z)-1-[3′,4′,5′-Trimethoxyphenyl]-2-[2″-[(disodium)phosphate]-3″-[hydroxy]-4″-methoxyphenyl] ethene] | > 40 |
| COc1cc(/C=C\c2ccc(OC)c(OP(=O)(O)O)c2OP(=O)(O)O)cc(OC)c1OC [CA1P (Z), reference compound] | > 40 |
